Series [1] in a line: in vivo. The conditions noted are these: CD-1, mouse, po, 10 mg/kg.
A short description of series [2]: in vivo. As to conditions: CD-1, mouse, po, 10 mg/kg. The source holds these as a separate data set.
Series [3] in a line: in vivo. The conditions noted are these: CD-1, mouse, po, 10 mg/kg. This is another data set of the same source.
A short description of series [4]: in vitro. The conditions noted are these: mouse, hepatocytes.
Series [5] in a line: in vitro. The conditions noted are these: human, Caco-2.
A short description of series [6]: physchem.
A short description of series [7]: Dose normalized AUC(0 to t) in collagen-induced arthritis mouse at 10 mg/kg, po measured at day 9. The class given is ADME, organism-based. The conditions noted are these: in vivo, 216 h, time 9 day.
A short description of series [8]: Cmax in collagen-induced arthritis mouse at 10 mg/kg, po measured at day 19. The class given is ADME, organism-based. Also on record: dose 10 mg/kg, time 19 day, route po. The conditions noted are these: in vivo.
Series [9] can be described thus: Dose normalized AUC(0 to t) in collagen-induced arthritis mouse at 50 mg/kg, po measured at day 9. It is filed as ADME, organism-based. As to conditions: in vivo, 216 h, time 9 day.
Series [10] in a line: AUC(0 to t) in collagen-induced arthritis mouse at 50 mg/kg, po measured at day 9. The class given is ADME, organism-based. Also on record: time 9 day, dose 50 mg/kg, route po. As to conditions: in vivo.
The nature of series [11]: Cmax in collagen-induced arthritis mouse at 10 mg/kg, po measured at day 9. The class given is ADME, organism-based. Also on record: time 9 day, dose 10 mg/kg, route po. As to conditions: in vivo.
Series [12] is described as follows: AUC(0 to t) in collagen-induced arthritis mouse at 50 mg/kg, po measured at day 19. As to conditions: in vivo. Also on record: dose 50 mg/kg, time 19 day, route po. The class given is ADME, organism-based.
Series [13] is described as follows: Cmax in collagen-induced arthritis mouse at 10 mg/kg, po measured at day 2. Also on record: dose 10 mg/kg, time 2 day, route po. The class given is ADME, organism-based. The conditions noted are these: in vivo.
Series [14] is described as follows: AUC(0 to t) in collagen-induced arthritis mouse at 50 mg/kg, po measured at day 2. Also on record: dose 50 mg/kg, time 2 day, route po. As to conditions: in vivo. It is filed as ADME, organism-based.
Series [15] in a line: Dose normalized AUC(0 to t) in collagen-induced arthritis mouse at 10 mg/kg, po measured at day 2. The class given is ADME, organism-based. The conditions noted are these: in vivo, 48 h, time 2 day.
Series [16] is described as follows: Cmax in collagen-induced arthritis mouse at 50 mg/kg, po measured at day 9. The conditions noted are these: in vivo. It is filed as ADME, organism-based. Also on record: dose 50 mg/kg, time 9 day, route po.
The nature of series [17]: AUC(0 to t) in collagen-induced arthritis mouse at 10 mg/kg, po measured at day 2. The class given is ADME, organism-based. Also on record: time 2 day, dose 10 mg/kg, route po. As to conditions: in vivo.
Series [18] in a line: Lipophilicity, logD of the compound at pH 7.4. It is filed as physicochemical. The conditions noted are these: buffer.
Series [19] in a line: Cmax in collagen-induced arthritis mouse at 50 mg/kg, po measured at day 19. The class given is ADME, organism-based. Also on record: dose 50 mg/kg, time 19 day, route po. The conditions noted are these: in vivo.
Series [20] is described as follows: AUC(0 to t) in collagen-induced arthritis mouse at 10 mg/kg, po measured at day 9. The class given is ADME, organism-based. Also on record: time 9 day, dose 10 mg/kg, route po. The conditions noted are these: in vivo.
Series [21] can be described thus: Dose normalized AUC(0 to t) in collagen-induced arthritis mouse at 50 mg/kg, po measured at day 19. As to conditions: in vivo, 456 h, time 19 day. The class given is ADME, organism-based.
Series [22] in a line: AUC(0 to t) in collagen-induced arthritis mouse at 10 mg/kg, po measured at day 19. It is filed as ADME, organism-based. Also on record: dose 10 mg/kg, time 19 day, route po. The conditions noted are these: in vivo.
Series [23] is described as follows: Cmax in collagen-induced arthritis mouse at 50 mg/kg, po measured at day 2. As to conditions: in vivo. The class given is ADME, organism-based. Also on record: dose 50 mg/kg, time 2 day, route po.
A short description of series [24]: Dose normalized AUC(0 to t) in collagen-induced arthritis mouse at 50 mg/kg, po measured at day 2. It is filed as ADME, organism-based. As to conditions: in vivo, 48 h, time 2 day.
Series [25] can be described thus: Dose normalized AUC(0 to t) in collagen-induced arthritis mouse at 10 mg/kg, po measured at day 19. It is filed as ADME, organism-based. The conditions noted are these: in vivo, 456 h, time 19 day.

By Cmax is commonly meant the maximum level reached in the sampled fluid or tissue. One may read the bioavailability as dose-corrected exposure relative to a reference, in per cent. A high value points to good availability. The AUC(0-t) is the area under the concentration-time curve up to a stated or last time point. Read a high AUC(0-t) as more exposure. Broadly, the hepatocyte CLint is a measure of how fast metabolising enzymes remove a compound, apart from limits set by blood flow. The term Papp A→B denotes how fast a substance crosses the layer from the apical side. Low readings indicate slow passage, high ones fast passage. One may read the pKa as the pH at which an ionisable group is half protonated. Higher therefore signals a weaker acid or stronger base. Broadly, the logD is lipophilicity at a set pH, counting ionised and neutral species. Higher therefore signals a more lipophilic compound.

As for `CC(C)(C(=O)Nc1ccc(-c2cncc(C(F)(F)F)n2)cc1F)c1csc(NS(=O)(=O)C2CC2)n1`, in series [1], the Cmax worked out at 11.1 µM. Besides, in series [2], the bioavailability came to 95%. The same compound had an AUC(0-t) in [3] of 56.1 µM·h. This compound returned a hepatocyte CLint at 1 h, 1 µM in series [4] of less than 1 µL/min/1e6 cells. Besides, the Papp A→B at 2 h, 10 µM in series [5] came to 9.9 ×10⁻⁶ cm/s.

The compound `CS(=O)(=O)Nc1nc(CC(=O)Nc2cccc(Cl)c2)cs1` gave a pKa in series [6] of 6.58.

For the compound `CCCOc1ccc(NC(=O)C(C)(C)c2csc(NS(=O)(=O)C3CC3)n2)cc1`, the Cmax in [1] stood at 0.9 µM. Moreover, in series [2], the bioavailability turned out to be 35%. In series [3], the AUC(0-t) was found to be 2.34 µM·h. The same compound gave a hepatocyte CLint at 1 h, 1 µM in series [4] of 32 µL/min/1e6 cells.

As to `CC(C)(C(=O)Nc1ccc(-c2cncc(C(F)(F)F)n2)cn1)c1csc(NS(=O)(=O)C2CC2)n1`, the AUCt/dose in series [7] worked out at 1188 ng·h/mL; in series [9] it was 587 ng·h/mL; in [15], 1503 ng·h/mL; in [21] it was 1052 ng·h/mL; in series [24], 873 ng·h/mL; in [25], 1049 ng·h/mL. The Cmax in series [8] came out at 3570 ng/mL; in series [1], 5.3 µM; in series [11] it was 3360 ng/mL; in series [13], 4770 ng/mL; in series [16] it was 6390 ng/mL; in [19], 13000 ng/mL. In series [23], this compound came in with a Cmax of 7830 ng/mL. Moreover, the AUC(0-t) at 216 h in [10] came out at 29400 ng·h/mL; in [20] it was 11900 ng·h/mL. Further, the AUC(0-t) at 456 h in series [12] came out at 52600 ng·h/mL; in series [22], 10500 ng·h/mL. In addition, the pKa in [6] worked out at 6.26. Besides, the AUC(0-t) at 48 h in series [14] stood at 43700 ng·h/mL; in series [17], 15000 ng·h/mL. In addition, the AUC(0-t) in [3] was 25.3 µM·h. In series [4], this compound returned a hepatocyte CLint at 1 h, 1 µM of 8 µL/min/1e6 cells. The compound further returned a Papp A→B at 2 h, 10 µM in series [5] of 7.1 ×10⁻⁶ cm/s. In addition, the logD in series [18] was found to be 2.46.
